# Measured values from patent US12416052B2, “Capturing, concentrating, and detecting microbes in a sample using magnetic ionic liquids and recombinase polymerase amplification” (priority 2019, dated 2025).
# How the values were obtained:
# [1] = test system: S. bongori; assay: MIL-based whole-cell extraction; design: species or system Salmonella bongori; conditions: 1×10^6 CFU mL^−1 in TSB, 15 μL MIL
# Description: (§1) A universal schematic for MIL-based cell extraction is depicted in FIG. 7B. A 1 mL volume of diluted cell suspension was added to a flat-bottomed 4-mL screw cap glass vial. Fifteen microliters of either the Ni(II) or Dy(III) MIL was added and dispersed into microdroplets by vortex agitation for 30 s. The aqueous phase was decanted following dispersive extraction, and the MIL was subjected to a brief wash step using 1 mL of nuclease-free water (Integrated DNA Technologies, Coralville, IA, USA) to ensure adequate removal of loosely or incidentally bound cells. […]
# (§2) Following back-extraction, aliquots of the cell-enriched back-extraction medium were serially diluted in 0.1% peptone water and a 10 μL aliquot of each dilution was applied to a separate lane on square plates containing an appropriate agar medium. […] Colonies were counted and colony forming units (CFU) were determined. The enrichment factor (EF) for MIL-based extraction was calculated using Equation 1, where CMIL represents the concentration of bacteria in suspension following extraction using the MIL and CS is the initial concentration of bacteria in the sample.
# In order to explore the broader utility of our approach, evaluation of additional cell types is needed. […] We later determined that VRBGA was a suitable common medium for this purpose and used this in our statistical analysis. […]
# [2] = test system: E. amylovora Ea935; assay: MIL-based whole-cell extraction; design: species or system Erwinia amylovora; conditions: EF determined using Columbia Agar
# Description: as §1, §2
# [3] = test system: C. sakazakii 01088P; assay: MIL-based whole-cell extraction; design: species or system Cronobacter sakazakii; conditions: EF determined using Tryptic Soy Agar
# Description: as §1, §2
# [4] = test system: S. minnesota SLH 157 (wild type, functional OM); assay: MIL-based whole-cell extraction (capture, wash, back-extraction, plating); design: species or system Salmonella enterica; key to Relative Affinity for MIL: +++++: higher losses during wash step are due to lower cellular affinity for the MIL; ++++: higher losses during wash step are due to lower cellular affinity for the MIL; +++: higher losses during wash step are due to lower cellular affinity for the MIL; ++: higher losses during wash step are due to lower cellular affinity for the MIL; +: higher losses during wash step are due to lower cellular affinity for the MIL
# Description: (§3) A universal schematic for MIL-based cell extraction is depicted in FIG. 7B. A 1 mL volume of diluted cell suspension was added to a flat-bottomed 4-mL screw cap glass vial. Fifteen microliters of either the Ni(II) or Dy(III) MIL was added and dispersed into microdroplets by vortex agitation for 30 s. The aqueous phase was decanted following dispersive extraction, and the MIL was subjected to a brief wash step using 1 mL of nuclease-free water (Integrated DNA Technologies, Coralville, IA, USA) to ensure adequate removal of loosely or incidentally bound cells. After washing, release of viable cells from the MIL extraction phase was carried out using a “back-extraction” step accomplished through addition of 1 mL of an ionically-rich nutritive medium comprised of 20 g L^−1 tryptone and 10 g L^−1 NaCl, followed by a 120 s vortex step. After back-extraction, aliquots of the cell-enriched back-extraction medium were enumerated using the track dilution method using 100×100 mm square, gridded TSA, BSA, CA or VRBGA plates.
# (§4) Following back-extraction, aliquots of the cell-enriched back-extraction medium were serially diluted in 0.1% peptone water and a 10 μL aliquot of each dilution was applied to a separate lane on square plates containing an appropriate agar medium. The plates were then tilted at an approximately 80° angle for 15 min to allow the droplets to travel toward the opposite end of the plate. The plates were incubated for 24 h at 37° C. (TSA, VRBGA), for 48 h at 37° C. (BSA) or for 24 h at 37° C. (CA). Colonies were counted and colony forming units (CFU) were determined. The enrichment factor (EF) for MIL-based extraction was calculated using Equation 1, where CMIL represents the concentration of bacteria in suspension following extraction using the MIL and CS is the initial concentration of bacteria in the sample.
# (§5) To further evaluate the importance of the OM to serve as a surface to which the MIL can bind and as a protective layer from potentially deleterious activities of the Ni(II) MIL, capture and recovery of two physiological variants of S. minnesota was performed. The strains compared were S. minnesota SLH 157 (wild type, functional OM) and S. minnesota mR613 (OM mutant). […] Compared to the wild type, cells with a truncated OM are dramatically more susceptible to damage from antimicrobial agents or chemically harsh environments. To study the effect of the Ni(II) MIL exposure on the recovery of wild type and mutant strains of S. minnesota, a 1 mL aliquot of TSB was inoculated with 1×10^5 CFU mL^−1 of bacteria and spiked with 15 μL of the Ni(II) MIL. MIL-based extraction was performed and 10 μL aliquots of the back-extraction solution were enumerated using TSA and BSA plates. Average CFU counts were compared to a standard that was not exposed to the Ni(II) MIL. Extraction and recovery of S. typhimurium was also assessed. Enrichment factors were calculated.
# (§6) Although all of the strains assessed were capable of being enriched by the MIL, some species were physically enriched to greater extents than others with extraction. In order to further examine the cause for this finding, the number of captured cells lost to the wash solution was investigated. The wash step is performed after the MIL enrichment step in order to remove any incidentally-adsorbed bacteria prior to back-extraction. It is hypothesized that the cells with lower enrichment factors have lower affinities for the MIL and are therefore lost in greater number to the wash solution than those having higher enrichment factors. […] The percent-loss during the wash step ranged from 47-79%. […] EF data from Table 4 for three overlapping Salmonella strains are superimposed to highlight trends in percent-loss, relative affinity and EF.
# [5] = test system: S. minnesota mR613 (OM mutant, deep rough); assay: as above; design: species or system Salmonella enterica; key to Relative Affinity for MIL: +++++: higher losses during wash step are due to lower cellular affinity for the MIL; ++++: higher losses during wash step are due to lower cellular affinity for the MIL; +++: higher losses during wash step are due to lower cellular affinity for the MIL; ++: higher losses during wash step are due to lower cellular affinity for the MIL; +: higher losses during wash step are due to lower cellular affinity for the MIL; conditions: for Percent-Loss: cells lost to wash solution
# Description: as §3, §4, §5, §6
# [6] = Density of MIL; assay type: physicochemical
# [7] = test system: K. aerogenes ATCC 29940; assay: MIL-based whole-cell extraction; design: species or system Klebsiella aerogenes; conditions: EF determined using Tryptic Soy Agar
# Description: as §1, §2
# [8] = test system: E. coli O157:H7 N336-4-1; assay: MIL-based whole-cell extraction; design: species or system Escherichia coli; conditions: 1×10^6 CFU mL^−1 in TSB, 15 μL MIL
# Description: as §3, §4
# (§7) In order to explore the broader utility of our approach, evaluation of additional cell types is needed. We began this extended evaluation of the Ni(II) MIL with seven representative DNA subgroups of Salmonella and eight strains of E. coli O157:H7. Briefly, a 1 mL aliquot of TSB was inoculated with 1×10^6 CFU mL^−1 of bacteria, and spiked with 15 μL of the Ni(II) MIL. MIL-based extraction was performed and 10 μL aliquots of the back-extraction solution were enumerated using TSA and BSA plates (Salmonella) or TSA plates (E. coli O157:H7). […] We later determined that VRBGA was a suitable common medium for this purpose and used this in our statistical analysis. Average CFU counts were compared to standards that were not exposed to the Ni(II) MIL. Enrichment factors were calculated for Salmonella on both non-selective (TSA) and selective agars (BSA) and for E. coli O157:H7 on non-selective agar (TSA). […] Note: As BSA is a Salmonella-specific agar E. coli O157:H7 was not plated to BSA in this example.
# [9] = test system: E. coli O157:H7 N192-5-1; assay: MIL-based whole-cell extraction; design: species or system Escherichia coli; conditions: 1×10^6 CFU mL^−1 in TSB, 15 μL MIL
# Description: as §3, §4, §7
# [10] = 1×10^5 CFU mL^−1 in TSB, 15 μL MIL
# [11] = ranked from percent-loss in wash step
smiles,measurement,setting,value
"CCCCCCCCCCCCCC[P+](CCCCCC)(CCCCCC)CCCCCC.O=C([CH-]C(=O)C(F)(F)F)C(F)(F)F.O=C([CH-]C(=O)C(F)(F)F)C(F)(F)F.O=C([CH-]C(=O)C(F)(F)F)C(F)(F)F.[Ni+2] [Ni(II) MIL, [P66614^+][Ni(hfacac)3^−]]",Enrichment Factor (BSA),[1],4
same,Enrichment Factor (TSA),[1],4
same,Enrichment Factor,[2],10
same,Enrichment Factor,[3],12
same,Enrichment Factor (BSA),[4]; [10],11
same,Enrichment Factor (TSA),[4]; [10],17
same,Percent-Loss,[4]; cells lost to wash solution,59 ± 3%
same,Relative Affinity for MIL,[4]; [11],+++
same,Enrichment Factor (TSA),[5]; [10],4
same,Percent-Loss,[5],69 ± 5%
same,Percent-Loss,[5]; listed as MIL,79%
same,antimicrobial effect of capture process on deep rough mutant,[5]; post-capture growth behavior on TSA,not overtly antimicrobial
same,Relative Affinity for MIL,[5]; [11],++
same,density,[6],~1.3 g/mL
same,Enrichment Factor,[7],71
same,Enrichment Factor (TSA),[8],3
same,Enrichment Factor (TSA),[9],7
